Measurements: patent US10660890B2, “Treatment of polycystic diseases with an HDAC6 inhibitor” (NATIONAL INSTITUTES OF HEALTH (NIH), U.S. DEPT. OF HEALTH …, priority 2013, dated 2020)

How the values were obtained:
PCK rat cholangiocytes = test: Proliferation assay, PCK rat cholangiocytes (MTS / cell counting); format: cell-based; details: for reduction of proliferation of PCK cholangiocytes: day 3, MTS
From the text: For in vitro experiments, cholangiocytes were isolated from control rats, PCK rats (an animal model for […], LaRusso N F: Development and characterization of polarized primary cultures of rat intrahepatic bile duct epithelial cells, Lab Invest 1996, 74:303-313), healthy human beings and ADPKD patients (Masyuk et al. Biliary exosomes influence cholangiocyte regulatory mechanisms and proliferation through interaction with primary cilia, Am J Physiol Gastrointest Liver Physiol (2010) 299:G990-999; O'Hara et al. Cholangiocyte N-Ras protein mediates lipopolysaccharide-induced interleukin 6 secretion and proliferation, J Biol Chem (2011) 286:30352-30360; Banales et al. Up-regulation of microRNA 506 leads to decreased Cl(-)/HCO(3) (-) anion exchanger 2 expression in biliary epithelium of patients with primary biliary cirrhosis, Hepatology (2012) 56(2):687-97). Cholangiocytes were cultured in Collagen-I-coated flasks (BD Biocoat). All cell lines were incubated in NRC Media at 37° C., 5% CO2, 100% humidity. NRC Media contains Dulbecco's modified Eagle medium/F12 with the following additions: 0.01 mL/mL Minimum Essential Media (MEM) nonessential amino acids, 0.01 mL/mL lipid concentrate, 0.01 mL/mL MEM vitamin solution, 2 mmol/L L-glutamine, 0.05 mg/mL soybean trypsin inhibitor, 0.01 mL/mL insulin/transferring/selenium-S, 5% fetal bovine serum, […] bovine pituitary extract, 25 ng/mL epidermal growth factor, 393 ng/mL dexamethasone, […] 3,3-,5-triiodo-L-thyronine, 4.11 µg/mL forskolin, and 1% penicillin-streptomycin. […] The drug vehicle, DMSO, was suspended in NRC Media as a control. Cell proliferation was assessed with the CellTiter 96 AQueous One Solution (MTS; Promega) and/or counting cells using the Cellometer Auto T4 Cell Counter (Nexcelom Bioscience).

[1] = test system: normal (NRC) cholangiocytes; test: Proliferation assay, normal rat cholangiocytes (NRC); format: cell-based; details: 2, 4, and 8 μmol/L (FIG. 4A)
From the text: (§1) For in vitro experiments, cholangiocytes were isolated from control rats, PCK rats (an animal model for ARPKD; Vroman B, LaRusso N F: Development and characterization of polarized primary cultures of rat intrahepatic bile duct epithelial cells, Lab Invest 1996, 74:303-313), healthy human beings and ADPKD patients (Masyuk et al. Biliary exosomes influence cholangiocyte regulatory mechanisms and proliferation through interaction with primary cilia, Am J Physiol Gastrointest Liver Physiol (2010) 299:G990-999; O'Hara et al. Cholangiocyte N-Ras protein mediates lipopolysaccharide-induced interleukin 6 secretion and proliferation, J Biol Chem (2011) 286:30352-30360; Banales et al. Up-regulation of microRNA 506 leads to decreased Cl(−)/HCO(3) (−) anion exchanger 2 expression in biliary epithelium of patients with primary biliary cirrhosis, Hepatology (2012) 56(2):687-97).
Cholangiocytes were cultured in Collagen-I-coated flasks (BD Biocoat). […]
Control and PCK rat cholangiocytes were cultured on Collagen-I-coated flasks (BD Biocoat) using NRC Media, detached with 0.25% Trypsin-EDTA (GIBCO), transferred to Collagen-I-coated 96-well plates (10 000 cells/well) and incubated at 37° C., 5% CO2, 100% humidity. […] Cell proliferation was assessed with the CellTiter 96 AQueous One Solution (MTS; Promega) and/or counting cells using the Cellometer Auto T4 Cell Counter (Nexcelom Bioscience).

β-catenin [2] = test: Immunofluorescence of β-catenin in PCK cholangiocytes; format: cell-based, rat; details: nucleus and cytoplasm (FIG. 6B)
PCK rat = PCK rat model of polycystic liver disease, cystic area and fibrosis; format: in vivo
From the text: Bar=2500 μm. FIG. 4C, quantification analysis of cystic area expressed as percentage of total parenchyma area. *p<0.05.
The PCK rat model was used because the genetic mutation in this animal is orthologous to that found in human ARPKD. These animals express many of the characteristics of human […] (Lager D J, et al., Kidney Internat 59: 126-136, 2001; Harris, Curr Opin Nephrol Hypertens 11:309-314, 2002). The animals carrying this mutation present with both kidney and liver fibrocystic disease and these animals live long enough to facilitate long-term treatment protocols (Gattone V. H., et al., Nat Med (2003) 9: 1323-1326; Tones V. E., et al., Nat Med (2004) 10:363-364; Masyuk T. V., et al., Gastroenterology (2007) 132:1104-1116, 2007. Female animals show more severe liver disease than male animals.
The efficacy of the Compound A-1 was then tested in a PCK rat, an animal model of polycystic liver disease.

Male PKC-1 rats = test: Kidney cyst volume in male PCK-1 rats, oral gavage 12 weeks; format: in vivo, rat; details: oral gavage once daily for 12 weeks; histological analysis
Method: Male PKC-1 rats (4 weeks old, n=12) were treated by oral gavage once daily with the indicated dose of compounds for 12 weeks. The animals were sacrificed and kidneys were removed and fixed in formalin. The volume of cysts in the kidneys was measured by histological analysis (see FIG. 7). As a comparison, 6 rats were sacrificed at 4 weeks to measure the starting volume of renal cysts (control).

[3] = test system: human ADPKD cholangiocytes; test: 3-day proliferation assay, human ADPKD cholangiocytes; format: cell-based; details: 3-day proliferation assay (FIG. 5A)
From the text: FIG. 5A depicts a human ADPKD 3-day proliferation assay showing decreased proliferation induced by both HDAC6 specific inhibitors, tubastatin-A and tubacin.
as §1
Cholangiocytes were cultured in Collagen-I-coated flasks (BD Biocoat). All cell lines were incubated in NRC Media at 37° C., 5% CO2, 100% humidity. […]

[4] = test system: biliary cysts freshly isolated from PCK rats; test: 3D-culture cyst growth in collagen matrix; format: cell-based, rat; details: after four days
Method: Freshly isolated bile ducts from PCK rats were embedded in a rat-tail type I Collagen matrix (BD Biosciences) and grown in the presence or absence of 10 μmol/L Tubastatin A and 2 μmol/L Tubacin. Images of the growing cysts were taken every day over a period of 5 days and cyst size was measured with the software “Image J” (National Institute of Health). The circumferential areas for each cystic structure was compared to day 0 to calculate percentages of growth as previously described (see Muff et al. Development and characterization of a cholangiocyte cell line from the PCK rat, an animal model of Autosomal Recessive Polycystic Kidney Disease, Lab Invest 2006, 86:940-950; Masyuk et al. Octreotide inhibits hepatic cystogenesis in a rodent model of polycystic liver disease by reducing cholangiocyte adenosine 3′,5′-cyclic monophosphate, Gastroenterology (2007) 132:1104-1116 27; Lee et al. MicroRNA15a modulates expression of the cell-cycle regulator Cdc25A and affects hepatic cystogenesis in a rat model of polycystic kidney disease, J. Clin. Invest. (2008) 118:3714-3724 28. Gradilone et al. Activation of Trpv4 reduces the hyperproliferative phenotype of cystic cholangiocytes from an animal model of ARPKD, Gastroenterology (2010) 139:304-314 e302).

acetylated α-tubulin = test: Western blot, acetylated α-tubulin in PCK cholangiocytes; format: cell-based, rat
Method: (§2) PCK cholangiocytes were treated with 20 μM Tubastatin A or 2 μM Tubacin, lysed and used for Western blotting. […] Actin was used as a loading control. FIG. 3B depicts representative images of Western blots (n=3) showing HDAC6 inhibitors increase the amount of phospho- and acetyl-β-catenin compared to untreated cells using total-β-catenin as loading control. […] (*p<0.05).
Protein isolated from cultured control rat and PCK rat cholangiocytes were analyzed. Cells were scrapped, resuspended in Phosphate Buffered Saline (PBS) with Protease Inhibitors, Sodium Orthovanadate and Phenylmethanesulfonylfluoride (PMSF), sonicated and equal amounts of sample protein were diluted in Laemmli Sample Buffer (Biorad) and mercaptoethanol. […]
(§3) For a better understanding of the mechanisms that are responsible for the inhibition of PCK cholangiocyte proliferation and cyst growth in 3D culture, cultured PCK cholangiocytes were treated with tubastatin-A and tubacin and the amount of acetylated α-tubulin and β-catenin was determined by Western blotting.

β-catenin [5] = test: Western blot, β-catenin (total, phospho-, acetyl-) in PCK cholangiocytes; format: cell-based, rat
Method: as §2
(§4) Protein isolated from cultured control rat and PCK rat cholangiocytes were analyzed. Cells were scrapped, resuspended in Phosphate Buffered Saline (PBS) with Protease Inhibitors, Sodium Orthovanadate and Phenylmethanesulfonylfluoride (PMSF), sonicated and equal amounts of sample protein were diluted in Laemmli Sample Buffer (Biorad) and mercaptoethanol. After SDS polyacrylamide gel electrophoresis, SDS-PAGE, proteins were transferred to nitrocellulose membranes, blocked, and then incubated with the following primary antibodies: HDAC6 (Santa Cruz Biotechnology, D-11, 1:500), acetylated-α-tubulin (Sigma Aldrich, 1:2000), β-catenin (Cell Signaling Technology, (D10A8) XP® Rabbit mAb; 1:1000), Phospho-β-Catenin (Ser33/37/Thr41) (Cell Signaling Technology, 1:1000), acetyl-β-catenin (Cell Signaling Technology, 1:1000), c-myc (Santa Cruz Biotechnology, 1:500), cyclin D1 (Santa Cruz Biotechnology, 1:500), and actin (Sigma Aldrich, 1:5000). The membranes were incubated overnight at 4° C., washed and incubated for 1 hour at room temperature with horseradish perodixase-conjugated (1:5000, Invitrogen) or IRdye 680 or 800 (1:15000, Odyssey) corresponding secondary antibody. The ECL system or Odyssey Licor Scanner was used for protein detection and the Gel-Pro Analyzer 6.0 software was used for densitometry analysis.
as §3

cyclin D1 = test: Western blot, cyclin D1 in PCK cholangiocytes; format: cell-based, rat; details: 2 μM Tubacin
Method: as §2
as §4, with “The membranes were incubated overnight at 4° C., washed and incubated for 1 hour at room temperature with horseradish perodixase-conjugated (1:5000, Invitrogen) or IRdye 680 or 800 (1:15000, Odyssey) corresponding secondary antibody. The ECL system or Odyssey Licor Scanner was used for protein detection and the Gel-Pro Analyzer 6.0 software was used for densitometry analysis.” left out

c-myc = test: Western blot, c-myc in PCK cholangiocytes; format: cell-based, rat; details: 2 μM Tubacin
Method: as §2
as §4, with “The membranes were incubated overnight at 4° C., washed and incubated for 1 hour at room temperature with horseradish perodixase-conjugated (1:5000, Invitrogen) or IRdye 680 or 800 (1:15000, Odyssey) corresponding secondary antibody. The ECL system or Odyssey Licor Scanner was used for protein detection and the Gel-Pro Analyzer 6.0 software was used for densitometry analysis.” left out

histone-3 = test: Western blot, histone-3 acetylation in PCK cholangiocytes; format: cell-based, rat; details: 2 μM Tubacin
Method: as §2
as §4, with “The membranes were incubated overnight at 4° C., washed and incubated for 1 hour at room temperature with horseradish perodixase-conjugated (1:5000, Invitrogen) or IRdye 680 or 800 (1:15000, Odyssey) corresponding secondary antibody. The ECL system or Odyssey Licor Scanner was used for protein detection and the Gel-Pro Analyzer 6.0 software was used for densitometry analysis.” left out

β-catenin mRNA = test: RT-PCR, β-catenin mRNA in PCK cholangiocytes; format: cell-based, rat; details: 2 uM tubacin; over time
Method: as §2
RNA was isolated from control and PCK rat cholangiocytes with TRIZOL reagent (Invitrogen). cDNA was obtained using First Srand cDNA Synthesis (Invitrogen) reagents and HDAC6 primers (forward primer: 5′-TCAGCGCAGTCTTATGGATG-3′ (SEQ ID NO.: 1); reverse primer: 5′-GCGGTGGATGGAGAAATAGA-3′, SEQ ID NO.: 2) were purchased from Integrated DNA Technologies. β-catenin mRNA expression was analyzed using the TaqMan Gene Expression Assay (Assay ID Rn00584431_g1) following the manufacturer directions. The samples were normalized to 18S rRNA.

[6] = 2 μM Tubacin, total-β-catenin as loading control

O=C(CCCCCCNC(=O)c1cnc(N(c2ccccc2)c2ccccc2)nc1)NO [Compound A-1, 2-(diphenylamino)-N-(7-(hydroxyamino)-7-oxoheptyl)pyrimidine-5-carboxamide]
PCK cells proliferation (PCK rat cholangiocytes; 2, 4, and 8 μmol/L (FIG. 4A)): inhibited by the Compound A-1 in a dose dependent manner | proliferation of normal cells [1]: no significant effect | β-catenin expression in PCK cells (fluorescence quantification) (β-catenin [2]): reduced β-catenin expression | reduction of liver fibrosis (PCK rat; p<0.001): 30.5% | reduction of kidney cyst area (PCK rat; vs vehicle): 39.0% | reduction of liver cyst area (PCK rat; vs vehicle): 28.4%

O=C(CCCCCCNC(=O)c1cnc(N(c2ccccc2)c2ccccc2Cl)nc1)NO [Compound B-1, 2-((2-chlorophenyl)(phenyl)amino)-N-(7-(hydroxyamino)-7-oxoheptyl)pyrimidine-5-carboxamide]
cyst formation in vivo (volume of cysts in the kidneys) (Male PKC-1 rats): decrease cyst formation

O=C(NO)c1cnc(NC2(c3ccccc3)CCC(F)(F)CC2)nc1 [Compound C-2]
cyst formation in vivo (volume of cysts in the kidneys) (Male PKC-1 rats): decrease cyst formation

O=C(CCCCCCC(=O)Nc1ccc([C@H]2O[C@@H](CSc3nc(-c4ccccc4)c(-c4ccccc4)o3)C[C@@H](c3ccc(CO)cc3)O2)cc1)NO [tubacin]
reduction of PCK cholangiocyte proliferation (PCK rat cholangiocytes; tubacin, 3 day time period (FIG. 2B)): 2.94 folds | decrease of proliferation of cultured human ADPKD cholangiocytes [3]: 16% | reduction of cyst growth compared to untreated cysts ([4]; 2 μM): 125% | increase of acetylated α-tubulin level compared to untreated cells (acetylated α-tubulin; 2 μM Tubacin): 2.3 fold | decrease of β-catenin level (β-catenin [5]; 2 μM Tubacin): 5 fold | amount of acetyl-β-catenin compared to untreated cells (β-catenin [5]; [6]): increase | amount of phospho-β-catenin compared to untreated cells (β-catenin [5]; [6]): increase | β-catenin protein expression over time (β-catenin [5]; 2 uM tubacin): decrease in β-catenin protein expression over time | cyclin D1 level (cyclin D1): decreasing | c-myc level (c-myc): decreasing | acetylation levels of histone-3 (histone-3): remained unaffected | β-catenin mRNA (β-catenin mRNA): remained stable

CN1CCc2c(c3ccccc3n2Cc2ccc(C(=O)NO)cc2)C1 [tubastatin A]
reduction of proliferation of PCK cholangiocytes (PCK rat cholangiocytes; 5 μM): 2.5 folds | reduction of proliferation of PCK cholangiocytes (PCK rat cholangiocytes; 10 μM): 3.5 folds | reduction of proliferation of PCK cholangiocytes (PCK rat cholangiocytes; 20 μM): 4.15 folds | decrease of proliferation of cultured human ADPKD cholangiocytes [3]: 85% | reduction of cyst growth compared to untreated cysts ([4]; 10 μM): 131% | increase of acetylated α-tubulin level compared to untreated cells (acetylated α-tubulin; 20 μM Tubastatin A): 13 fold | decrease of β-catenin level (β-catenin [5]; 20 μM Tubastatin A): 2.2 fold
